This note sets out measurements from patent US12162848B2, “Inhibitors of protein tyrosine phosphatase, compositions, and methods of use” (BRISTOL-MYERS SQUIBB COMPANY, priority 2022, dated 2024).

The structures appear in SMILES notation. A value given as a limit tells only on which side of the number the result lay.

Test [1] has as its system phosphorylated STAT1 protein levels in B16-F10 cells. The test is described as follows: Phospho-STAT1 (Tyr701) HTRF assay in IFN-gamma treated B16-F10 cells. Conditions: mouse IFN-gamma 100 ng/mL, 1 hour, read-out: pSTAT1 HTRF B16 EC50. Type of test: cell-based. Here is the method: B16-F10 cells (ATCC, Manassas, VA, #CRL-6475) were cultured in DMEM growth medium (ThermoFisher Scientific, Waltham, MA, #11995-040) supplemented with 10% heat inactivated FBS (ThermoFisher Scientific, #16140-071) and 1% pen/strep (ThermoFisher Scientific, #15140-122). The cells were seeded into a white opaque 384-well tissue culture treated microplate (PerkinElmer, Waltham, MA, #6007688) at a density of 10,000 cells/well in 20 uL total volume and incubated overnight at 37 C and 5% CO2. 30 nL of compounds dissolved in DMSO were then transferred from a source plate into target wells with the Echo650 acoustic liquid handler (Beckman Coulter, Indianapolis, IN). Negative control wells received 30 nL of DMSO only (0.15% final concentration). Plates were returned to the incubator for 1 hour and then cells treated with either 5 uL of growth medium or 5 uL of growth medium containing 500 ng/mL of recombinant mouse IFN-gamma protein (R&D Systems, Minneapolis, MN, #485-MI/CF, 100 ng/mL final concentration) using the Assist automated pipetting platform (INTEGRA Biosciences, Hudson, NH). Plates were incubated at 37 C for 1 hour and assayed for phosphorylated STAT1 protein levels with the phospho-STAT1 (Tyr701) HTRF kit (Cisbio, Bedford, MA, #63ADK026PEH) according to manufacturer's instructions.

A further test concerns the target T1, PTPN2 enzyme (Homo sapiens, UniProt P17706).
T1 sequence (P17706 1-415): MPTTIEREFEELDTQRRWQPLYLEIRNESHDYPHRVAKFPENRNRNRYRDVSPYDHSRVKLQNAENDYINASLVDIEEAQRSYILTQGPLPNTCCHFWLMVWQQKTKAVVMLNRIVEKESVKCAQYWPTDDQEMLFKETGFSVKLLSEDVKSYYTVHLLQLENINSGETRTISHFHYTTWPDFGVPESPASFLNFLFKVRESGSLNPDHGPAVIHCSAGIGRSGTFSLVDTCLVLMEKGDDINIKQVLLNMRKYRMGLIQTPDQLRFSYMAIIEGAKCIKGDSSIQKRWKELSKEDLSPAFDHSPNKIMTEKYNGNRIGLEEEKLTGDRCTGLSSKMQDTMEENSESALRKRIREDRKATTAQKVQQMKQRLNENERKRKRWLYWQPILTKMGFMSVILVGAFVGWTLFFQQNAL
The test is described as follows: PhosphoSens PTPN2 biochemical assay. Conditions: substrate AQT0264 20 μM, room temperature; read-out: PTPN2 BCHEM IC50. The method, then: A PhosphoSens® kinase assay was performed as described by the vendor (AssayQuant Technologies, Marlborough, MA). Briefly, 1000×solutions of compounds were prepared in DMSO via serial dilution of the 10 mM DMSO stocks using 3-fold intervals in a 384-well reagent plate. 50 nL of the compound dilution series was then added to the corresponding wells of a 384-well assay plate. […] of 1.25×substrate (AQT0264) in 1× assay buffer (50 mM HEPES pH 7.5, 500 μM EGTA, […] MgCl2, 0.01% Brij-35, 1% Glycerol, 1 mM DTT, and 0.2 mg/mL BSA) was transferred to each well of the assay plate to achieve a final substrate concentration of 20 μM. Finally, […] of 5×PTPN2 enzyme stock was added to each well of the assay plate for a final enzyme concentration of […]. Reaction progress curves were collected by sampling fluorescence intensity at the excitation wavelength 360 nm (λex360) and emission wavelength 480 nm (λem480) every 71 seconds for one hour using a Synergy H4 plate reader (BioTek Instruments/Agilent Technologies, Winooski, VT) at room temperature.

Usually EC50 stands for the concentration needed to bring the measured effect to its halfway point. Broadly, the IC50 is the concentration that gives 50% inhibition. Consider `CC(=O)N1CCC[C@@H](NCc2cc(O)c(N3CC(=O)NS3(=O)=O)c(F)c2)C1` [EXAMPLE 68, 5-[4-[[[(3R)-1-acetyl-3-piperidyl]amino]methyl]-2-fluoro-6-hydroxy-phenyl]-1,1-dioxo-1,2,5-thiadiazolidin-3-one], for which, in test [1], the EC50 is 6680 nM. For the same molecule, the IC50 at PTPN2 enzyme was 32 nM.
Take `CCCN(Cc1cc(O)c(N2CC(=O)NS2(=O)=O)c(F)c1)CC1CCC1` [EXAMPLE 78, 5-[4-[[cyclobutylmethyl(propyl)amino]methyl]-2-fluoro-6-hydroxy-phenyl]-1,1-dioxo-1,2,5-thiadiazolidin-3-one]: the concentration giving a half-maximal response (EC50) in test [1] was no less than 15000 nM. Further, the IC50 on PTPN2 enzyme turned out to be 806 nM.
In the case of `O=C1CN(c2c(O)cc(C3CCNCC3)cc2F)S(=O)(=O)N1` [EXAMPLE 2, 5-[2-fluoro-6-hydroxy-4-(4-piperidyl)phenyl]-1,1-dioxo-1,2,5-thiadiazolidin-3-one], the IC50 at PTPN2 enzyme worked out at 1300 nM.
With `O=C1CN(c2c(O)cc(CN[C@H]3CCCN(S(=O)(=O)c4cccc(F)c4)C3)cc2F)S(=O)(=O)N1` [EXAMPLE 70, 5-[2-fluoro-4-[[[(3S)-1-(3-fluorophenyl)sulfonyl-3-piperidyl]amino]methyl]-6-hydroxy-phenyl]-1,1-dioxo-1,2,5-thiadiazolidin-3-one], the EC50 in test [1] was no less than 15000 nM. For the same molecule, the IC50 at PTPN2 enzyme was determined as 30 nM.
On the same counts, the results for `CCCCC1CCN(Cc2cc(O)c(N3CC(=O)NS3(=O)=O)c(F)c2)CC1` [EXAMPLE 57, 5-[4-[(4-butyl-1-piperidyl)methyl]-2-fluoro-6-hydroxy-phenyl]-1,1-dioxo-1,2,5-thiadiazolidin-3-one] are 10900 nM and 381 nM.
As for `CN(Cc1cc(O)c(N2CC(=O)NS2(=O)=O)c(F)c1)C1CCC(C)(C)CC1` [EXAMPLE 77, 5-[4-[[(4,4-dimethylcyclohexyl)-methyl-amino]methyl]-2-fluoro-6-hydroxy-phenyl]-1,1-dioxo-1,2,5-thiadiazolidin-3-one], the half-maximal effective concentration (EC50) in test [1] was no less than 15000 nM.
Still for that read-out and setting: the value for `O=C1CN(c2c(O)ccc(CN3CCC(F)CC3)c2F)S(=O)(=O)N1` [EXAMPLE 98, 5-(2-fluoro-3-((4-fluoropiperidin-1-yl)methyl)-6-hydroxyphenyl)-1,2,5-thiadiazolidin-3-one 1,1-dioxide] was no less than 15000 nM.
For the molecule `CN(C)C1CCN(Cc2ccc(O)c(N3CC(=O)NS3(=O)=O)c2F)CC1` [EXAMPLE 102, 5-(3-((4-(dimethylamino)piperidin-1-yl)methyl)-2-fluoro-6-hydroxyphenyl)-1,2,5-thiadiazolidin-3-one 1,1-dioxide], the EC50 in test [1] is no less than 15000 nM.
For the molecule `O=C1CN(c2c(O)cc(NC3CCNCC3)cc2F)S(=O)(=O)N1` [EXAMPLE 88, 5-(2-fluoro-6-hydroxy-4-(piperidin-4-ylamino)phenyl)-1,2,5-thiadiazolidin-3-one 1,1-dioxide], on PTPN2 enzyme, the IC50 is 1200 nM.
Consider `CN1CCCC(c2cc(O)c(N3CC(=O)NS3(=O)=O)c(F)c2)C1` (centres unmarked) [EXAMPLE 3, 5-(2-fluoro-6-hydroxy-4-(1-methylpiperidin-3-yl)phenyl)-1,2,5-thiadiazolidin-3-one 1,1-dioxide], for which, at PTPN2 enzyme, the half-maximal inhibitory concentration (IC50) worked out at 4730 nM.
Take `CC(C)CCN1CCN(Cc2ccc(O)c(N3CC(=O)NS3(=O)=O)c2F)CC1` [EXAMPLE 104, 5-[2-fluoro-6-hydroxy-3-[(4-isopentylpiperazin-1-yl)methyl]phenyl]-1,1-dioxo-1,2,5-thiadiazolidin-3-one]: the half-maximal effective concentration (EC50) in test [1] is no less than 15000 nM.
Take `CC(C)CCN1CCC(c2cc(O)c(N3CC(=O)NS3(=O)=O)c(F)c2)CC1` [EXAMPLE 6, 5-[2-fluoro-6-hydroxy-4-(1-isopentyl-4-piperidyl)phenyl]-1,1-dioxo-1,2,5-thiadiazolidin-3-one]: the IC50 at PTPN2 enzyme came out at 2750 nM.
Still for that read-out and setting: the value for `CC(=O)N1CCN(Cc2cc(O)c(N3CC(=O)NS3(=O)=O)c(F)c2)CC1` [EXAMPLE 38, 5-(4-((4-acetylpiperazin-1-yl)methyl)-2-fluoro-6-hydroxyphenyl)-1,2,5-thiadiazolidin-3-one 1,1-dioxide] was 83 nM.
